The assay deals with human α-thrombin (Homo sapiens, UniProt P00734). Kind of assay: Sub-library screen for active and permeable cyclic peptides (PAMPA plus thrombin inhibition). The format is biochemical. Conditions: crude, slopes normalized to DMSO; for Residual thrombin activity: Top sample: PAMPA acceptor well after 14 h, 5 μM donor; for Residual thrombin activity: Equilibrated sample: donor sample diluted to theoretical equilibrium (1 μM in assay). The procedure: Linear dithiol peptides were synthesized in fritted 5-ml polypropylene syringes on a MultiPep RSi parallel peptide synthesizer (Intavis) by standard Fmoc-based solid-phase peptide synthesis on cysteamine 2-chlorotrityl resin (Sigma-Aldrich, 8.56000, 1.63 mmol g^−1 loading, 25 μmol scale) as described above with small changes. Amino acids (65 μmol, 2.6 eq.) were activated with HATU (63 μmol, 2.5 eq.) and NMM (145 μmol, 5.8 eq.) in 280 μl of DMF and 5 μl of NMP and let to react with the resin (25 μmol, 1 eq.) for 45 min. Couplings were performed twice for each amino acid. Resin was washed once with 800 μl of DMF, and unreacted amines were capped with 5% acetic anhydride and 6% 2,6-lutidine in 400 μl of DMF for 5 min. The resin was washed six times with 600 μl of DMF, and Fmoc protecting groups were removed by incubating the resin twice with 450 μl of a 20% piperidine solution in DMF for 5 min. The resin was washed six times with 600 μl of DMF before proceeding to the next coupling cycle. After completing the last coupling cycle, the resin was washed six times with […] of DCM. Peptide cleavage and ether precipitation were carried out as described above. After quantification with Ellman’s reagent, 1 μmol of each peptide was transferred in seven replicates to new Nunc 96-well DeepWell polypropylene plates and lyophilized. Peptides were cyclized as described above to afford 20 mM cyclic peptide stock solutions in DMSO containing 160 mM HEPES sodium salt. The amine on cyclic peptides was acylated with 5-chlorothiophene-2-carboxylic acid as follows. A 160 mM solution in 5-chlorothiophene-2-carboxylic acid was prepared in DMSO containing 160 mM HEPES sodium salt, and the acid was activated by mixing in equal volumes with a 160 mM HSTU solution in DMSO. Then, 10 μl of the activated carboxylic acid solutions and the cyclic peptide stocks were placed in Echo Qualified 384-well Low Dead Volume microplates (Labcyte), and 400 nl of cyclic peptide and 400 nl of HSTU-activated 5-chlorothiophene-2-carboxylic acid were transferred combinatorially to 384-well microplates (Greiner, 781076) using the Echo 650 acoustic liquid handler (Labcyte). Plates were centrifuged at 2,000 g for 2 min, and the reaction was allowed to proceed at room temperature for 8 h before addition of 39.2 μl of DMSO with a CERTUS FLEX liquid dispenser (Gyger). A volume of 25 μl of the resulting DMSO solutions was diluted with PBS buffer at pH 7.4 containing 5% DMSO in Nunc 96-well DeepWell polypropylene plates to afford 5 μM solutions of the acylated peptides.
The PAMPA plates were covered with a lid to avoid evaporation and incubated for 14 h at room temperature. Additionally, a diluted donor sample was prepared at the concentration representing theoretical maximum permeability (3 μM). Thereby, 30 μl of the donor sample before incubation was diluted with 20 μl of PBS buffer at pH 7.4 containing 5% DMSO. Volumes of 16 μl of each acceptor well and the diluted donor samples were transferred to a 384-well microplate (Greiner, 781076), and thrombin activity was measured as follows. Human α-thrombin (16 μl, 6 nM, Molecular Innovations) in assay buffer was dispensed into each well using a CERTUS FLEX liquid dispenser (Gyger), and plates were incubated at room temperature for 10 min. Then, 16 μl of a 150 μM fluorogenic thrombin substrate solution (Z-Gly-Gly-Arg-AMC, Bachem) in assay buffer containing 1% DMSO was added to each well, and thrombin inhibition was determined by measuring the fluorescent gain over time. Fluorescence intensity was measured on a Tecan Infinite M200 Pro microplate reader for 30 min at 25 °C with a fluorescent readout every 3 min (excitation: 360 nm, emission: 465 nm). Protease inhibition was calculated by comparing the enzymatic activity to a control without cyclic peptide.

Molecules are shown by their SMILES.

With `O=C1C[C@H]2CCCN2C(=O)[C@H](Cc2ccccc2)NC(=O)[C@@H](NC(=O)c2ccc(Cl)s2)CCSCCS(=O)(=O)CCSCCN1` [C2-X5-L2], the “Residual thrombin activity: Top sample” value worked out at 89.4 and the “Residual thrombin activity: Equilibrated sample” value stood at 25.8.
In the case of `CN1C(=O)[C@@H](NC(=O)c2ccc(Cl)s2)CSCc2ccc(cc2)CSCCNC(=O)C[C@H]2CCCN2C(=O)[C@@H]1Cc1ccccc1` [C1-X32-L3], the “Residual thrombin activity: Top sample” value amounted to 91.1 and the “Residual thrombin activity: Equilibrated sample” value came out at 94.0.
Take `O=C1C[C@H]2CCCN2C(=O)[C@H](Cc2ccccc2)NC(=O)[C@@H](NC(=O)c2ccc(Cl)s2)CCSCc2ccc(cc2)CSCCN1` [C2-X5-L3]: the “Residual thrombin activity: Top sample” value came to 86.6 and the “Residual thrombin activity: Equilibrated sample” value is given as 59.6.
Take `Cc1cccc(C[C@@H]2NC(=O)[C@@H](NC(=O)c3ccc(Cl)s3)CSCCS(=O)(=O)CCSCCNC(=O)C[C@H]3CCCN3C2=O)c1` [C1-X37-L2]: the “Residual thrombin activity: Top sample” value worked out at 93.0 and the “Residual thrombin activity: Equilibrated sample” value turned out to be 57.2.
In the same order, the values of `O=C1C[C@H]2CCCN2C(=O)[C@H](Cc2ccc(C(F)(F)F)cc2)NC(=O)[C@@H](NC(=O)c2ccc(Cl)s2)CSCc2cccc(c2)CSCCN1` [C1-X36-L5] are 101.6 and 104.5.
For `O=C1C[C@H]2CCCN2C(=O)[C@H](Cc2ccc(Cl)cc2)NC(=O)[C@@H](NC(=O)c2ccc(Cl)s2)CCSCc2ccc(cc2)CSCCN1` [C2-X34-L3], the “Residual thrombin activity: Top sample” value is 99.4 and the “Residual thrombin activity: Equilibrated sample” value was 99.1.
On to `Cc1cccc(C[C@@H]2NC(=O)[C@@H](NC(=O)c3ccc(Cl)s3)CSCc3ccccc3CSCCNC(=O)C[C@H]3CCCN3C2=O)c1` [C1-X37-L6], for which the “Residual thrombin activity: Top sample” value turned out to be 93.2 and the “Residual thrombin activity: Equilibrated sample” value stood at 84.4.
In the same order, the values of `CN1C(=O)[C@@H](NC(=O)c2ccc(Cl)s2)CCSCc2cccc(c2)CSCCNC(=O)C[C@H]2CCCN2C(=O)[C@@H]1Cc1ccccc1` [C2-X32-L5] are 104.7 and 100.8.
The corresponding values for `Cc1cccc(C[C@@H]2NC(=O)[C@@H](NC(=O)c3ccc(Cl)s3)CSCc3ccc(cc3)CSCCNC(=O)C[C@H]3CCCN3C2=O)c1` [C1-X37-L3] are 95.4 and 90.2.
The corresponding values for `CN1C(=O)[C@@H](NC(=O)c2ccc(Cl)s2)CSCc2cccc(n2)CSCCNC(=O)C[C@H]2CCCN2C(=O)[C@@H]1Cc1ccccc1` [C1-X32-L1] are 87.6 and 99.6.
Consider `O=C1C[C@H]2CCCN2C(=O)[C@H](Cc2ccc(Cl)cc2)NC(=O)[C@@H](NC(=O)c2ccc(Cl)s2)CCSCc2cccc(n2)CSCCN1` [C2-X34-L1], for which the “Residual thrombin activity: Top sample” value is listed as 87.1 and the “Residual thrombin activity: Equilibrated sample” value is on record as 93.9.
For `CN1C(=O)[C@@H](NC(=O)c2ccc(Cl)s2)CSC/C=C/CSCCNC(=O)C[C@H]2CCCN2C(=O)[C@@H]1Cc1ccccc1` [C1-X32-L4], the “Residual thrombin activity: Top sample” value is recorded as 95.6 and the “Residual thrombin activity: Equilibrated sample” value was found to be 100.2.
Regarding `O=C1C[C@H]2CCCN2C(=O)[C@H](Cc2ccc(Cl)cc2)NC(=O)[C@@H](NC(=O)c2ccc(Cl)s2)CCSCCS(=O)(=O)CCSCCN1` [C2-X34-L2], the “Residual thrombin activity: Top sample” value was 99.3 and the “Residual thrombin activity: Equilibrated sample” value was 99.5.
Consider `N#Cc1ccc(C[C@@H]2NC(=O)[C@@H](NC(=O)c3ccc(Cl)s3)CCSC/C=C/CSCCNC(=O)C[C@H]3CCCN3C2=O)cc1` [C2-X35-L4], for which the “Residual thrombin activity: Top sample” value worked out at 100.5 and the “Residual thrombin activity: Equilibrated sample” value was found to be 100.3.
In the case of `O=C1C[C@H]2CCCN2C(=O)[C@H](Cc2ccc(C(F)(F)F)cc2)NC(=O)[C@@H](NC(=O)c2ccc(Cl)s2)CSCc2ccc(cc2)CSCCN1` [C1-X36-L3], the “Residual thrombin activity: Top sample” value was determined as 95.8 and the “Residual thrombin activity: Equilibrated sample” value is 94.6.
With `O=C1C[C@H]2CCCN2C(=O)[C@H](Cc2ccc(C(F)(F)F)cc2)NC(=O)[C@@H](NC(=O)c2ccc(Cl)s2)CCSCCS(=O)(=O)CCSCCN1` [C2-X36-L2], the “Residual thrombin activity: Top sample” value came out at 101.5 and the “Residual thrombin activity: Equilibrated sample” value turned out to be 101.8.
Consider `COc1ccc(C[C@@H]2NC(=O)[C@@H](NC(=O)c3ccc(Cl)s3)CSCc3ccc(cc3)CSCCNC(=O)C[C@H]3CCCN3C2=O)cc1` [C1-X33-L3], for which the “Residual thrombin activity: Top sample” value came out at 96.4 and the “Residual thrombin activity: Equilibrated sample” value was determined as 98.9.
For the compound `Cc1cccc(C[C@@H]2NC(=O)[C@@H](NC(=O)c3ccc(Cl)s3)CCSCC(=O)CSCCNC(=O)C[C@H]3CCCN3C2=O)c1` [C2-X37-L7], the “Residual thrombin activity: Top sample” value was 99.9 and the “Residual thrombin activity: Equilibrated sample” value is listed as 83.6.
As to `Cc1cccc(C[C@@H]2NC(=O)[C@@H](NC(=O)c3ccc(Cl)s3)CCCSCC(=O)CSCCNC(=O)C[C@H]3CCCN3C2=O)c1` [C3-X37-L7], the “Residual thrombin activity: Top sample” value is 84.8 and the “Residual thrombin activity: Equilibrated sample” value was 58.3.
In the same order, the values of `O=C1C[C@H]2CCCN2C(=O)[C@H](Cc2ccc(Cl)cc2)NC(=O)[C@@H](NC(=O)c2ccc(Cl)s2)CCCSCc2ccc(cc2)CSCCN1` [C3-X34-L3] are 101.2 and 96.4.
With `CN1C(=O)[C@@H](NC(=O)c2ccc(Cl)s2)CCCSCc2cccc(n2)CSCCNC(=O)C[C@H]2CCCN2C(=O)[C@@H]1Cc1ccccc1` [C3-X32-L1], the “Residual thrombin activity: Top sample” value turned out to be 99.5 and the “Residual thrombin activity: Equilibrated sample” value was determined as 98.5.
`O=C1C[C@H]2CCCN2C(=O)[C@@H](Cc2ccccc2)NC(=O)[C@@H](NC(=O)c2ccc(Cl)s2)CCCSCc2cccc(c2)CSCCN1` [C3-X31-L5]: the “Residual thrombin activity: Top sample” value was 105.2 and the “Residual thrombin activity: Equilibrated sample” value came out at 103.4.
In the case of `N#Cc1ccc(C[C@@H]2NC(=O)[C@@H](NC(=O)c3ccc(Cl)s3)CSCC(=O)CSCCNC(=O)C[C@H]3CCCN3C2=O)cc1` [C1-X35-L7], the “Residual thrombin activity: Top sample” value was 96.3 and the “Residual thrombin activity: Equilibrated sample” value was determined as 100.4.
For the compound `Cc1cccc(C[C@@H]2NC(=O)[C@@H](NC(=O)c3ccc(Cl)s3)CSCc3cccc(c3)CSCCNC(=O)C[C@H]3CCCN3C2=O)c1` [C1-X37-L5], the “Residual thrombin activity: Top sample” value is given as 100.9 and the “Residual thrombin activity: Equilibrated sample” value turned out to be 88.0.
For `O=C1C[C@H]2CCCN2C(=O)[C@H](Cc2ccc(Cl)cc2)NC(=O)[C@@H](NC(=O)c2ccc(Cl)s2)CCSCc2cccc(c2)CSCCN1` [C2-X34-L5], the “Residual thrombin activity: Top sample” value stood at 106.3 and the “Residual thrombin activity: Equilibrated sample” value came to 106.4.
Turning to `O=C1C[C@H]2CCCN2C(=O)[C@H](Cc2ccccc2)NC(=O)[C@@H](NC(=O)c2ccc(Cl)s2)CSCc2cccc(n2)CSCCN1` [C1-X5-L1], the “Residual thrombin activity: Top sample” value is listed as 77.6 and the “Residual thrombin activity: Equilibrated sample” value was 68.5.
For the compound `CN1C(=O)[C@@H](NC(=O)c2ccc(Cl)s2)CSCc2ccccc2CSCCNC(=O)C[C@H]2CCCN2C(=O)[C@@H]1Cc1ccccc1` [C1-X32-L6], the “Residual thrombin activity: Top sample” value worked out at 91.7 and the “Residual thrombin activity: Equilibrated sample” value is listed as 86.4.

The values above are taken from PMC11062899, “De novo development of small cyclic peptides that are orally bioavailable” (Nature Chemical Biology, 2023).
